From PMC3720801, “A Proline-Hinge Alters the Characteristics of the Amphipathic α-helical AMPs” (PLoS ONE, 2013) come the findings set out here.

One assay concerns S. aureus (KCTC 1621). The following applies: broth microdilution, 1% bactopeptone, 5×10^3 CFU/ml, 10 h at 37°C, OD 620 nm, triplicate.
The test system of assay [1] is Saccharomyces cerevisiae (KCTC 7296). The following applies: MTT assay, YPD pH 5.5, 24 h at 28°C, absorbance 570 nm, triplicate.
For assay [2], the system named is Trichosporon beigelii (KCTC 7707). The assay is described as follows: Antifungal MTT assay MIC. Type of assay: cell-based. The conditions noted are these: YPD pH 5.5, 24 h at 28°C, absorbance 570 nm, triplicate.
Assay [3] concerns Pseudomonas aeruginosa (KCTC 1637). The following applies: broth microdilution, 1% bactopeptone, 5×10^3 CFU/ml, 10 h at 37°C, OD 620 nm, triplicate.
Assay [4] deals with Staphylococcus epidermidis (KCTC 1917). The following applies: broth microdilution, 1% bactopeptone, 5×10^3 CFU/ml, 10 h at 37°C, OD 620 nm, triplicate.
Assay [5] deals with Proteus vulgaris (KCTC 2433). The following applies: broth microdilution, 1% bactopeptone, 5×10^3 CFU/ml, 10 h at 37°C, OD 620 nm, triplicate.
Assay [6] relates to Bacillus subtilis (KCTC 1918). The conditions noted are these: broth microdilution, 1% bactopeptone, 5×10^3 CFU/ml, 10 h at 37°C, OD 620 nm, triplicate.
Assay [7] concerns Escherichia coli (KCTC 1682). The following applies: broth microdilution, 1% bactopeptone, 5×10^3 CFU/ml, 10 h at 37°C, OD 620 nm, triplicate.
Assay [8] has as its system Candida albicans (KCTC 7270). The following applies: MTT assay, YPD pH 5.5, 24 h at 28°C, absorbance 570 nm, triplicate.
The test system of assay [9] is Salmonella typhimurium (KCTC 1926). The following applies: broth microdilution, 1% bactopeptone, 5×10^3 CFU/ml, 10 h at 37°C, OD 620 nm, triplicate.
A further assay deals with C. albicans cells. Briefly: Flow cytometric analysis of cell membrane permeability (PI uptake). The conditions noted are these: 30 min on ice, 12.5 µM Anal 3 or melittin, peptides at MIC. Type of assay: cell-based, Candida albicans. The procedure:
Membrane integrity following peptide treatment was evaluated using flow cytometry. Anal 3, Anal 3-Pro or melittin (control) was added to C. albicans cells (2×10^5 cells in YPD media) to the MIC, after which cell membrane permeabilization was detected by incubating the treated cells in 50 µg/ml propidium iodide (PI) for 30 min at 4°C. After removing the unbound dye by extensively washing with PBS, the cells were subjected to flow cytometric analysis using a FACScalibur flow cytometer (Becton Dickinson, San Jose, CA). PI fluorescence was monitored in the FL2-H channel.

In brackets after ≈: the same amount, converted by molar mass. Peptide text beside a SMILES is read from it.

With `CC[C@H](C)[C@H](NC(=O)[C@H](CCCCN)NC(=O)[C@H](CO)NC(=O)[C@H](Cc1ccccc1)NC(=O)[C@H](CC(C)C)NC(=O)[C@H](CCCCN)NC(=O)[C@H](CCC(=O)O)NC(=O)[C@H](CC(C)C)NC(=O)[C@H](CCCNC(=N)N)NC(=O)[C@H](CCCCN)NC(=O)[C@H](Cc1ccccc1)NC(=O)[C@@H](NC(=O)[C@H](CCCCN)NC(=O)[C@H](CCCCN)NC(=O)[C@H](C)N)C(C)C)C(=O)N[C@@H](CCC(N)=O)C(=O)N[C@@H](CC(N)=O)C(=O)N[C@@H](Cc1c[nH]c2ccccc12)C(=O)N[C@@H](CCCCN)C(N)=O` [Anal 1] (H-AKKVFKRLEKLFSKIQNWK-NH2), the “MIC G(+) SA” value in the assay with S. aureus (KCTC 1621) was 3.13 µM (≈ 7.48 µg/mL). Besides, the “MIC Yeast SC” value in assay [1] was 12.5 µM (≈ 29.9 µg/mL). The “MIC Yeast TB” value in [2] is reported as 6.25 µM (≈ 14.9 µg/mL). Besides, the “MIC G(−) PA” value in [3] is 6.25 µM (≈ 14.9 µg/mL). The “MIC G(+) SE” value in assay [4] is 0.78 µM (≈ 1.86 µg/mL). Moreover, in assay [5], the “MIC G(−) PV” value came out at 1.56 µM (≈ 3.73 µg/mL). The “MIC G(+) BS” value in assay [6] stood at 1.56 µM (≈ 3.73 µg/mL). In addition, the “MIC G(−) EC” value in assay [7] turned out to be 1.56 µM (≈ 3.73 µg/mL). Besides, the “MIC Yeast CA” value in [8] worked out at 12.5 µM (≈ 29.9 µg/mL). Besides, the “MIC G(−) ST” value in assay [9] is reported as 0.39 µM (≈ 0.932 µg/mL).

Turning to `CC[C@H](C)[C@H](NC(=O)[C@H](CCCCN)NC(=O)[C@H](CO)NC(=O)[C@H](Cc1ccccc1)NC(=O)[C@H](CC(C)C)NC(=O)[C@H](CCCCN)NC(=O)[C@H](CCC(=O)O)NC(=O)[C@H](CC(C)C)NC(=O)[C@H](CCCNC(=N)N)NC(=O)[C@H](CCCCN)NC(=O)[C@H](Cc1ccccc1)NC(=O)[C@@H](NC(=O)[C@H](CCCCN)NC(=O)[C@H](CCCCN)NC(=O)[C@H](C)N)C(C)C)C(=O)N[C@@H](Cc1c[nH]c2ccccc12)C(=O)N[C@@H](CC(N)=O)C(=O)N[C@@H](CC(=O)O)C(=O)N[C@@H](CCCCN)C(N)=O` [Anal 2] (H-AKKVFKRLEKLFSKIWNDK-NH2), in the assay on S. aureus (KCTC 1621), the “MIC G(+) SA” value is 3.13 µM (≈ 7.44 µg/mL). Further, the “MIC Yeast SC” value in assay [1] came to 12.5 µM (≈ 29.7 µg/mL). The “MIC Yeast TB” value in [2] fell in the range of 6.25 to 12.5 µM. Besides, the “MIC G(−) PA” value in assay [3] was found to be 6.25 µM (≈ 14.9 µg/mL). In addition, the “MIC G(+) SE” value in assay [4] was 1.56 µM (≈ 3.71 µg/mL). Also, the “MIC G(−) PV” value in [5] is 1.56 µM (≈ 3.71 µg/mL). Moreover, the “MIC G(+) BS” value in assay [6] is reported as 1.56 µM (≈ 3.71 µg/mL). Besides, the “MIC G(−) EC” value in assay [7] is 1.56 µM (≈ 3.71 µg/mL). For the same molecule, the “MIC Yeast CA” value in assay [8] is listed as 12.5 µM (≈ 29.7 µg/mL). Further, the “MIC G(−) ST” value in [9] worked out at 0.78 µM (≈ 1.85 µg/mL).

As for `CC[C@H](C)[C@H](NC(=O)[C@H](CCCCN)NC(=O)[C@H](CO)NC(=O)[C@H](Cc1ccccc1)NC(=O)[C@H](CC(C)C)NC(=O)[C@H](CCCCN)NC(=O)[C@H](CCC(=O)O)NC(=O)[C@H](CC(C)C)NC(=O)[C@H](CCCNC(=N)N)NC(=O)[C@H](CCCCN)NC(=O)[C@H](CO)NC(=O)[C@@H](NC(=O)[C@H](CCCCN)NC(=O)[C@H](CCCCN)NC(=O)[C@H](C)N)C(C)C)C(=O)N[C@@H](CCC(N)=O)C(=O)N[C@@H](CC(N)=O)C(=O)N[C@@H](CC(=O)O)C(=O)N[C@@H](CCCCN)C(N)=O` [Anal 5] (H-AKKVSKRLEKLFSKIQNDK-NH2), the “MIC G(+) SA” value in the assay on S. aureus (KCTC 1621) was over 12.5 µM. Also, the “MIC Yeast SC” value in assay [1] lay in the range of 50 to 100 µM. For the same molecule, the “MIC Yeast TB” value in assay [2] is listed as 50 µM (≈ 113 µg/mL). Further, the “MIC G(−) PA” value in assay [3] was over 12.5 µM. The “MIC G(+) SE” value in [4] worked out at 6.25 µM (≈ 14.1 µg/mL). The “MIC G(−) PV” value in [5] is 3.13 µM (≈ 7.07 µg/mL). Further, the “MIC G(+) BS” value in assay [6] amounted to 3.13 µM (≈ 7.07 µg/mL). The “MIC G(−) EC” value in assay [7] is recorded as 6.25 µM (≈ 14.1 µg/mL). For the same molecule, the “MIC Yeast CA” value in [8] is recorded as 100 µM (≈ 226 µg/mL). Besides, the “MIC G(−) ST” value in assay [9] is reported as 3.13 µM (≈ 7.07 µg/mL).

On to `CC[C@H](C)[C@H](NC(=O)[C@H](CCCCN)NC(=O)[C@H](CO)NC(=O)[C@H](Cc1ccccc1)NC(=O)[C@H](CC(C)C)NC(=O)[C@H](CCCCN)NC(=O)[C@H](CCC(=O)O)NC(=O)[C@H](CC(C)C)NC(=O)[C@H](CCCNC(=N)N)NC(=O)[C@H](CCCCN)NC(=O)[C@H](Cc1ccccc1)NC(=O)[C@@H](NC(=O)[C@H](CCCCN)NC(=O)[C@H](CCCCN)NC(=O)[C@H](C)N)C(C)C)C(=O)N[C@@H](Cc1c[nH]c2ccccc12)C(=O)N[C@@H](CC(N)=O)C(=O)N[C@@H](Cc1c[nH]c2ccccc12)C(=O)N[C@@H](CCCCN)C(N)=O` [Anal 3] (H-AKKVFKRLEKLFSKIWNWK-NH2), for which the “MIC G(+) SA” value with S. aureus (KCTC 1621) is listed as 1.56 µM (≈ 3.82 µg/mL). Further, in assay [1], the “MIC Yeast SC” value lay in the range of 3.13 to 6.25 µM. Besides, in [2], the “MIC Yeast TB” value was found to be 3.13 µM (≈ 7.67 µg/mL). Besides, the “MIC G(−) PA” value in assay [3] is 3.13 µM (≈ 7.67 µg/mL). The “MIC G(+) SE” value in assay [4] amounted to 0.78 µM (≈ 1.91 µg/mL). For the same molecule, in [5], the “MIC G(−) PV” value turned out to be 1.56 µM (≈ 3.82 µg/mL). Further, the “MIC G(+) BS” value in assay [6] is listed as 0.78 µM (≈ 1.91 µg/mL). Moreover, the “MIC G(−) EC” value in assay [7] is on record as 0.78 µM (≈ 1.91 µg/mL). Further, in [8], the “MIC Yeast CA” value is given as 6.25 µM (≈ 15.3 µg/mL). The “MIC G(−) ST” value in assay [9] was found to be 0.39 µM (≈ 0.955 µg/mL).

In the case of `CC[C@H](C)[C@H](NC(=O)[C@H](CCCCN)NC(=O)[C@H](CO)NC(=O)[C@H](Cc1ccccc1)NC(=O)[C@H](CC(C)C)NC(=O)[C@H](CCCCN)NC(=O)[C@H](CCC(=O)O)NC(=O)[C@H](CC(C)C)NC(=O)[C@H](CCCNC(=N)N)NC(=O)[C@H](CCCCN)NC(=O)[C@H](Cc1ccccc1)NC(=O)[C@@H](NC(=O)[C@H](CCCCN)NC(=O)[C@H](CCCCN)NC(=O)[C@H](C)N)C(C)C)C(=O)N[C@@H](CCC(N)=O)C(=O)N[C@@H](CC(N)=O)C(=O)N[C@@H](CC(=O)O)C(=O)N[C@@H](CCCCN)C(N)=O` [HP (2–20), reference compound] (H-AKKVFKRLEKLFSKIQNDK-NH2), the “MIC G(+) SA” value against S. aureus (KCTC 1621) stood at 12.5 µM (≈ 29 µg/mL). For the same molecule, the “MIC Yeast SC” value in [1] is given as 25 µM (≈ 58 µg/mL). In addition, in assay [2], the “MIC Yeast TB” value was 12.5 to 25 µM. For the same molecule, the “MIC G(−) PA” value in assay [3] was 12.5 µM (≈ 29 µg/mL). Also, the “MIC G(+) SE” value in assay [4] is given as 3.13 µM (≈ 7.26 µg/mL). Moreover, the “MIC G(−) PV” value in [5] is 3.13 µM (≈ 7.26 µg/mL). Besides, in assay [6], the “MIC G(+) BS” value was 1.56 µM (≈ 3.62 µg/mL). Further, the “MIC G(−) EC” value in [7] came to 6.25 µM (≈ 14.5 µg/mL). Further, in assay [8], the “MIC Yeast CA” value came to 25 µM (≈ 58 µg/mL). The “MIC G(−) ST” value in assay [9] turned out to be 0.78 µM (≈ 1.81 µg/mL).

As to `CC[C@H](C)[C@H](NC(=O)[C@H](CCCCN)NC(=O)[C@H](CO)NC(=O)[C@H](Cc1ccccc1)NC(=O)[C@H](CO)NC(=O)[C@H](CCCCN)NC(=O)[C@H](CCC(=O)O)NC(=O)[C@H](CC(C)C)NC(=O)[C@H](CCCNC(=N)N)NC(=O)[C@H](CCCCN)NC(=O)[C@H](Cc1ccccc1)NC(=O)[C@@H](NC(=O)[C@H](CCCCN)NC(=O)[C@H](CCCCN)NC(=O)[C@H](C)N)C(C)C)C(=O)N[C@@H](CCC(N)=O)C(=O)N[C@@H](CC(N)=O)C(=O)N[C@@H](CC(=O)O)C(=O)N[C@@H](CCCCN)C(N)=O` [Anal 4] (H-AKKVFKRLEKSFSKIQNDK-NH2), the “MIC G(+) SA” value in the assay with S. aureus (KCTC 1621) was over 12.5 µM. Besides, the “MIC Yeast SC” value in [1] is given as 50 µM (≈ 115 µg/mL). Moreover, the “MIC Yeast TB” value in [2] is 50 µM (≈ 115 µg/mL). For the same molecule, the “MIC G(−) PA” value in assay [3] is given as over 12.5 µM. In [4], the “MIC G(+) SE” value is reported as 12.5 µM (≈ 28.7 µg/mL). The “MIC G(−) PV” value in assay [5] was determined as 6.25 µM (≈ 14.3 µg/mL). The “MIC G(+) BS” value in [6] is recorded as 6.25 µM (≈ 14.3 µg/mL). The “MIC G(−) EC” value in [7] worked out at 12.5 µM (≈ 28.7 µg/mL). The “MIC Yeast CA” value in assay [8] was 50 to 100 µM. In assay [9], the “MIC G(−) ST” value was 1.56 µM (≈ 3.58 µg/mL).

As for “melittin: antimicrobial peptide known to target the cell membrane”, in the assay on C. albicans cells, the “PI influx (membrane permeabilization), in words” value was “large influx of PI”.
